According to ChEMBL document CHEMBL5584329, “Development of new dehydrocostuslactone derivatives for treatment of atopic dermatitis via inhibition of the NF-κB signaling pathway” (RSC Med Chem, 2024):
pIC50: −log10 of the molar value. Active and inactive are the calls of the source. The calls are words filed in the database; no cut-off is given here.

Columns and labels:
[1] = Cytotoxicity against mouse RAW264.7 cells assessed as inhibition of cell viability at 20 uM by MTT assay relative to control; format: toxicity, cell-based; conditions: read-out: INH
RAW264.7 [2] = experiment: Inhibition of LPS-induced NO production in mouse RAW264.7 cells at 20 uM preincubated for 2 hrs followed by LPS addition and measured after 24 hrs by Griess assay relative to control; format: functional; conditions: time 26 hrs
RAW264.7 [3] = experiment: Inhibition of LPS-induced NO production in mouse RAW264.7 cells preincubated for 2 hrs followed by LPS addition and measured after 24 hrs by Griess assay relative to control; format: functional, cell-based
[4] = Cytotoxicity against mouse RAW264.7 cells assessed as inhibition of cell viability by MTT assay relative to control; format: toxicity, cell-based
Mus musculus [5] = experiment: Antiinflammatory activity against MC093-induced atopic dermatitis BALB/c mouse model assessed as reduction in inflammatory cell infiltration in ear administered starting from day 4 to 10 after MC093-stimulation by H and E staining assay; format: functional, organism-based
Mus musculus [6] = experiment: Antiinflammatory activity against MC093-induced atopic dermatitis BALB/c mouse model assessed as reduction in epidermal thickness of ear administered starting from day 4 to 10 after MC093-stimulation by H and E staining assay; format: functional, organism-based

| SMILES | pIC50 (RAW264.7 [3]) | cytotoxicity at 20 µM [1] [%] | inhibition at 20 µM (RAW264.7 [2]) [%] | pIC50 [4] | Activity (Mus musculus [5]) | Activity (Mus musculus [6]) |
| --- | --- | --- | --- | --- | --- | --- |
| C=C1CC[C@H]2C(=C)CC[C@H]3C(CN(CCNS(=O)(=O)c4cc(Cl)c(F)cc4F)S(=O)(=O)c4cc(Cl)c(F)cc4F)C(=O)O[C@@H]3[C@@H]12 (some centres undefined) | 4.89 | 10.4 | 68.1 | < 4.40 | – | – |
| C=C1CC[C@H]2C(=C)CC[C@H]3C(CN(CCNS(=O)(=O)c4cccc(Cl)c4F)S(=O)(=O)c4cccc(Cl)c4F)C(=O)O[C@@H]3[C@@H]12 (some centres undefined) | – | 1.67 | 48.1 | – | – | – |
| C=C1CC[C@H]2C(=C)CC[C@H]3C(CNCCNCc4cc(Br)ccc4O)C(=O)O[C@@H]3[C@@H]12 (some centres undefined) | – | -2.07 | 23.5 | – | – | – |

Second part, led by results:

| pIC50 (RAW264.7 [3]) | SMILES | cytotoxicity at 20 µM [1] [%] | inhibition at 20 µM (RAW264.7 [2]) [%] | pIC50 [4] | Activity (Mus musculus [5]) | Activity (Mus musculus [6]) |
| --- | --- | --- | --- | --- | --- | --- |
| 4.67 | C=C1CC[C@H]2C(=C)CC[C@H]3C(=C)C(=O)O[C@@H]3[C@@H]12 [DEHYDROCOSTUSLACTONE] | 17.3 | 40.3 | < 4.40 | – | – |
| 4.78 | C=C1CC[C@H]2C(=C)CC[C@H]3C(CN(CCNS(=O)(=O)c4ccc5ccccc5c4)S(=O)(=O)c4ccc5ccccc5c4)C(=O)O[C@@H]3[C@@H]12 (some centres undefined) | 8.58 | 76.8 | < 4.40 | – | – |
| 4.96 | C[C@@H]1C[C@H]2[C@@H]3CCC4=CC(=O)C=C[C@]4(C)[C@@]3(F)[C@@H](O)C[C@]2(C)[C@@]1(O)C(=O)CO [DEXAMETHASONE] | – | – | < 4.40 | Active | Active |
| 5.20 | C=C1CC[C@H]2C(=C)CC[C@H]3C(CN(CCNS(=O)(=O)c4ccc(C(C)(C)C)cc4)S(=O)(=O)c4ccc(C(C)(C)C)cc4)C(=O)O[C@@H]3[C@@H]12 (some centres undefined) | 9.88 | 81.2 | < 4.40 | – | – |
